Source: patent EP4763841A1, “PYRIDAZINONE COMPOUND AND USE THEREOF” (Xi'an Xintong Pharmaceutical Research Co., Ltd., priority 2023, dated 2025)
Entries after “also recorded” stand apart in the source; their conditions may differ.

Columns and labels:
[1] = molecular target: T1, THRβ (Homo sapiens, UniProt P10828); assay: HTRF test of agonist-induced SRC3-2 coactivator peptide recruitment to THRβ-LBD; assay type: biochemical
T1 sequence (P10828 217-461 limits assumed): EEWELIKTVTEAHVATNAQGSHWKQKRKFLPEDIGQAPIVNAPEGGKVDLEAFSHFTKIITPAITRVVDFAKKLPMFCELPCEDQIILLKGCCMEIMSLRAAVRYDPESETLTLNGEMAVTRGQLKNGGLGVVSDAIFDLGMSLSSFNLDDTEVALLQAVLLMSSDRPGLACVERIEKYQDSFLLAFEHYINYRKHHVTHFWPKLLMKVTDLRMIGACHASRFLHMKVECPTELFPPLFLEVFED
Experimental: 1. Experiment of binding of compounds to THRβ and THRα
Test principle: The effect of test compounds on THRβ and THRα was tested by using a method of HTRF. An MAb Anti GST-Eu cryptate antibody binds to GST-tagged THRα-LBD (or THRβ-LBD), while Streptavidin-XL665 binds to a biotin-labeled SRC3-2 coactivator peptide. […] At the same time, the resulting decrease in the distance between XL665-labeled SRC3-2 and an Eu-anti-GST antibody increases a THRFRET signal. The agonistic capacity at this target was assessed by the effect of compounds on the activity of THRα-LBD (THRβ-LBD) at different concentrations.
Test method: THRβ test procedures:
• (1) a 1×reaction solution was prepared. • (2) Preparation of compounds: the compound test starting concentration was 20 µM, 3-fold dilution was performed, 10 concentrations were set, and duplicate testing was set for each concentration. 100-fold dilution was performed in a 384-well Source plate to a corresponding solution with a final concentration, and then 200 nL of the solution was transferred to a 384-well reaction plate with Echo550 to be tested. 200 nL of 100% DMSO and a test article were respectively transferred to Min and Max wells. • (3) A 2×protein solution was prepared from the 1×reaction solution. • (4) A 4×SRC3-2 solution was prepared from the 1×reaction solution. • (5) A mixed solution of 4×GST-Eu cryptate and XL665 was prepared from the 1×reaction solution. • (6) 10 µl of the 2×protein solution was added to each well of the reaction plate, centrifugation was performed at 1000 rpm for 1 min, and incubation was performed at room temperature for 30 min. • (7) 5 µl of the 4×SRC3-2 solution was added to each well of the reaction plate, and centrifugation was performed at 1000 rpm for 1 min. • (8) 5 µL of the mixed solution of 4×GST-Eu cryptate and XL665 was added to each well of the reaction plate, centrifugation was performed at 1000 rpm for 1 min, and incubation was performed at 25°C. • (9) A fluorescence signal was read by using EnVision.

[2] = Comparison of compound metabolites by human liver microsome incubation (LC-MS/MS); assay type: in vitro ADME; conditions: 10 µM compound, human liver microsome 1.0 mg/mL, β-NADPH 1.0 mM, 37°C, 60 min
Experimental: The purpose of this experiment was to evaluate the comparison of the content of major metabolites of human liver microsome incubated compounds.
Sample treatment: a sample was precipitated with acetonitrile (ACN) containing 0.1% formic acid in a ratio of 1:2, and further centrifuged. A supernatant was dried with a nitrogen flow. A residue was reconstituted in […] of 10% ACN and 90% H2O containing 0.1% formic acid. […] of the reconstituted material was injected into an LC-MS/MS system for analysis.

[3] = Distribution of compounds in major organs after single gavage administration; assay type: in vivo, Sprague Dawley rats; conditions: gavage 5 mg/kg single dose, 1 h and 4 h, SD rats, result in words (FIG. 2)
Experimental: 0.25-0.3 ml of Systemic blood (jugular vein) was taken at each blood collection point to be added into an EDTA-K2 anticoagulant tube, uniform mixing was performed by gentle inversion, and the obtained mixture was stored on crushed ice for transport. Collection plan: PO blood collection point: 1 h and 4 h after administration. Animals were euthanized, tissues and organs were taken, and livers (0.3-0.5 g of liver was taken at a fixed position of a large lobe of liver), kidneys, and hearts were weighed, placed in 5 ml centrifuge tubes, quick-frozen on dry ice, and cryopreserved at -20°C.
A solvent (methanol:acetonitrile:water=25:25:50) was added for grinding and homogenization, and this process was performed rapidly by using a tissue grinder.
A solvent was added to the liver to 3 ml, one large steel ball and one small steel ball were added, and grinding was performed at 50 Hz for 60 s. Vortexing was performed for uniform mixing, and centrifugation was performed at 8000 rpm for 5 min. 0.3 ml of a supernatant was taken, a solvent was added until 3 ml, vortexing was performed for uniform mixing, and centrifugation was performed at 8000 rpm for 5 min. 0.1 ml of a supernatant was taken, 0.2 ml of acetonitrile was added, vortexing was performed for 30 s, and centrifugation was performed at 10000 rpm for 5 min. A supernatant was taken and sent for testing to analyze the drug content. […]

## [2H]C([2H])([2H])C(c1c(C)c(Oc2c(Cl)cc(-n3nc(CF)c(=O)[nH]c3=O)cc2Cl)n[nH]c1=O)C([2H])([2H])[2H] [Compound 6]
[1]; HTRF, starting concentration 20 µM, 3-fold dilution, 10 concentrations, duplicate, read-out: THRβ (EC50)
  EC50: 6.5 nM
[1]; result in words
  agonistic activity on THRβ compared with Resmetirom: significantly better than that of Resmetirom
  selectivity of agonistic effect for THRβ over THRα: selective agonistic effects on THRβ
[2]
  Monooxidized metabolite percent content (%): 3.0%
[2]; listed as compound 6
  Monooxidized metabolite percent content (%): 3%
[3]
  liver distribution: significant liver distribution advantage over Resmetirom and the compound X1; also recorded: significant liver distribution advantage over Resmetirom and a compound X1
